Patent publication US20100324285A1, “ANTIINFLAMMATORY AGENT COMPRISING 2-AMINOPHENOL OR DERIVATIVE THEREOF AS ACTIVE INGREDIENT” (priority 2006, published 2010)

Tests used:
RAW264.7 cells = test: NO production by macrophage RAW264.7, Griess method; assay type: cell-based, mouse; settings: LPS + IFN-γ, 2 days, relative level versus control
Text: As macrophage cells, RAW264.7 cell strain from mouse or macrophage cells obtained from laboratory animals such as mouse can be used. The amount of produced NO can be measured by conventional Griess method. […] RAW264.7 cells, a murine macrophage cell strain, were suspended in PRMI1640 medium supplied with 10% (v/v) fetal calf serum (hereinafter abbreviated as “FCS”) to give a cell suspension with a cell concentration of 1×10^6 cells/ml. […] The experimental system without the test samples described above was set as control. […] NO production, PGE2 production and macrophage growth are indicated as relative levels versus controls.

iNOS = test: Amount of iNOS in cell extracts, western blotting; assay type: cell-based, mouse; settings: RAW264.7 cell extracts of Experiment 2, anti-iNOS antibody
Experimental: In addition, the amount of iNOS in the cell extracts of this experiment was measured by western blotting analysis using an anti-iNOS antibody.

COX-1 = target: T1, COX-1 (Ovis aries, UniProt P05979); test: COX Inhibitor Screening Assay Kit, COX-1; assay type: biochemical
T1 construct: purchased Cayman Chemical Company
T1 sequence (P05979 25-600): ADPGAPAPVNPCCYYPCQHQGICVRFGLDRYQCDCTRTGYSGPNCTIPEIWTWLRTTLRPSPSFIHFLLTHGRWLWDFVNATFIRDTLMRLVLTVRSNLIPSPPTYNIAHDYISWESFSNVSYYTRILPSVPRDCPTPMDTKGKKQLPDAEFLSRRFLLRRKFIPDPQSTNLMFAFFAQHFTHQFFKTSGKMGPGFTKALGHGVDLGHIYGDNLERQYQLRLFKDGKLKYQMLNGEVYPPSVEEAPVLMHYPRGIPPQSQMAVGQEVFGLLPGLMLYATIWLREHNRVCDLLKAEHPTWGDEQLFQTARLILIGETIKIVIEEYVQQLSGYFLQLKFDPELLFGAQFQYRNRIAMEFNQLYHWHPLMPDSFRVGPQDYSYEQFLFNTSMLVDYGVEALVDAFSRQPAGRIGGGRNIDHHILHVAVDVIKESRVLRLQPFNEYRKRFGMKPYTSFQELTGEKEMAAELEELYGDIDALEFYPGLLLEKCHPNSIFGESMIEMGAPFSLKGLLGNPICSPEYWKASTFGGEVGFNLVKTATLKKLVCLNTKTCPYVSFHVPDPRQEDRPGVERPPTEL
Text: Fifty percent inhibitory concentration (IC50) means the concentration of test sample necessary for inhibiting PGE2 synthesis by 50% compared to non-inhibitory control sample. It can be also determined by measuring the amount of PGE2 produced by adding test samples to cells having cyclooxygenase activity. COX-1/COX-2 ratio means the ratio of […], and the higher the ratio is, the more specific to COX-2 the agent is.
To verify the results of Experiment 2, it was investigated that whether the activity of COXs, essential enzymes for PGE2 synthesis system, can be inhibited. […] An experimental system without the test samples was set as control. The residual activity of COX-1 or COX-2 was determined as relative activity versus control.

β-hexosaminidase = test: Direct inhibition of β-hexosaminidase activity of whole granule extract; assay type: biochemical, rat; settings: 40 μM added
Experimental: Separately, the whole granule extract described above was injected into a 96-well microplate by 50 μl per well. Each well was admixed with 50 μl of 0.1 M citrate buffer (pH 4.5) containing 1 mM PNAC and warmed at 37° C. for one hour. The reaction was stopped by adding 50 μl of 0.1 M sodium carbonate (pH 10.5), measuring the absorbance at 405 to 650 nm. As control, the same measurement as described above was carried out using BSA-containing Siraganian buffer alone. […] The resultant data was obtained by averaging the measurement values from 3 wells each of the test sample or the whole granule extract.

[1] = tested on: Mouse melanoma cell line B16; test: Living cell rate of B16 cells; settings: 5 days, versus control
Experimental: As control, a system with no test sample was provided. […] The amount of protein was measured by conventional Bradfordmethod and the amount of melanin per 1 mg of protein was calculated. The amount of melanin (%) was calculated according to Formula 4, and the living cell rate (%) was calculated according to Formula 5.

[2] = tested on: NHDF, normal fibroblast from human fetus; test: Cytopathic test, alamar Blue; assay type: cell-based; settings: 6 days; for Cell survival rate (%), AA-2G free: no AA-2G; for Cell survival rate (%), AA-2G addition: with AA-2G
Experimental: Cells were cultured with test samples and D-MEM medium supplemented with 10 (v/v) % FCS with or without AA-2G for 6 days by the same method as above, and the supernatant was removed, washed with phosphate buffered saline (PBS(−)), and admixed with alamar Blue (commercialized by TREK Diagnostic Systems, Inc.), which had been diluted by 10-fold with D-MEM medium in a volume of 200 μl per well. After culturing at 37° C. for 90 minutes, the fluorescence intensity (exciting light: 544 nm, fluorescence: 590 nm) was measured. The cell survival rate (%) was calculated by dividing the fluorescence intensity of a well with a test sample by the fluorescence intensity of a well with a control sample, and multiplying by 100.

[3] = read-out: residual activity of COX-1

With Nc1cc2nc3ccccc3oc-2cc1=O [2-Aminophenoxazine-3-one, 2-aminophenoxazine-3-one] the “NO production (%)” value (RAW264.7 cells; 0.16 μM) was 85%, the “NO production (%)” value (RAW264.7 cells; 0.31 μM) was 78% and the “NO production (%)” value (RAW264.7 cells; 0.63 μM) was 70%. The “NO production (%)” value (RAW264.7 cells; 1.3 μM) was 54%, the “NO production (%)” value (RAW264.7 cells; 2.5 μM) was 32% and the “NO production (%)” value (RAW264.7 cells; 5.0 μM) was 19%. The “NO production (%)” value (RAW264.7 cells; 10 μM) was 14%, the “amount of iNOS” value (iNOS) was “decreased depending on the 2-aminophenoxazine-3-one concentration” and the IC50 (COX-1; PGE2 from arachidonic acid, read-out: IC50 COX-1) was 6.44 µM. For the same compound, the remaining activity at 1.9 µM (COX-1; [3]) was 89%, the remaining activity at 3.8 µM (COX-1; [3]) was 59% and the remaining activity at 7.6 µM (COX-1; [3]) was 44%. The “inhibition rate of β-hexosaminidase activity” value (β-hexosaminidase) was −9.9%, the “Living cell rate (%)” value ([1]; 0.5 μM) was 107% and the “Living cell rate (%)” value ([1]; 1 μM) was 95%. The “Living cell rate (%)” value ([1]; 2 μM) was 77%, the “Cell survival rate (%), AA-2G free” value ([2]; QA 0.125 μM) was 101% and the “Cell survival rate (%), AA-2G addition” value ([2]; QA 0.125 μM) was 100%. For the same compound, the “Cell survival rate (%), AA-2G free” value ([2]; QA 0.25 μM) was 103%, the “Cell survival rate (%), AA-2G addition” value ([2]; QA 0.25 μM) was 100% and the “Cell survival rate (%), AA-2G free” value ([2]; QA 0.5 μM) was 99%. For the same compound, the “Cell survival rate (%), AA-2G addition” value ([2]; QA 0.5 μM) was 92%, the “Cell survival rate (%), AA-2G free” value ([2]; QA 1.0 μM) was 92% and the “Cell survival rate (%), AA-2G addition” value ([2]; QA 1.0 μM) was 79%. For the same compound, the “Cell survival rate (%), AA-2G free” value ([2]; QA 2.0 μM) was 88% and the “Cell survival rate (%), AA-2G addition” value ([2]; QA 2.0 μM) was 73%.
